# Assay results taken from US5789439A, “Pharmaceutical use of forskolin derivatives” (Nippon Kayaku Kabushiki Kaisha, priority 1990, dated 1998).
# Counter-ions that a name gives are not always drawn.
# Key:
# [1] = test system: ADP-induced aggregation; assay: ADP-induced aggregation after intravenous administration to healthy adults; assay type: in vivo, healthy adults (human); conditions: i.v. 0.8 μg/kg/min for one hour, mean of four subjects
# Description: (§1) A freeze-dried preparation comprising NKH-477 was dissolved in a physiological saline and administered intravenously to four healthy adults at a rate of 0.8 μg/kg/min for one hour. The degrees of ADP-induced aggregation, epinephrine-induced aggregation and collagen-induced aggregation upon end of administration were measured and compared with those before administration (each figure is the average of measurements on the four subjects).
# [2] = test system: whole-stratum skin cut-off model (skin ulcer); assay: Remedial effect for skin ulcer, whole-stratum skin cut-off model in rats; assay type: in vivo, male Wister rats; conditions: for Lesion reduction rate in whole-stratum skin cut-off model: 1 ml of 1 mg/ml applied daily, mean, n = 2
# Description: The remedial effect of NKH-477 for skin ulcer was ascertained by the following test.
# The abdominal region of each of the test animals--male Wister rats (10 weeks old and weighing 350-390 g) divided into groups of 2--was […] and a piece of skin of about 3 cm in diameter was cut off from said abdominal region of each test rat under anesthesia with pentobarbital (40 mg/kg, i.p.) to prepare a whole-stratum skin cut-off model, and it was used as a skin ulcer model. NKH-477 was used as the test compound (specimen) while a physiological saline was used as control. The specimen was dissolved in a physiological saline (1 mg/ml), and 1 ml of the solution was applied directly to the affected region every day, the treated part being covered with gauze fixed in position. The areas of lesion after the lapse of 1 day, 2 days, 3 days and 5 days from start of application of the specimen solution were measured by a digitizer to determine the lesion reduction rate, from which the skin ulcer curative effect of the test compound was evaluated.
# [3] = test system: total peripheral vascular resistance; assay: Effect on peripheral vascular resistance in human; assay type: in vivo; conditions: i.v. 0.4 μg/kg/min, 40 minutes from start; four healthy adults; saline 1.7%
# Description: (3) Effect on peripheral vascular resistance in human was examined.
# A freeze-dried preparation comprising NKH-477 was dissolved in a physiological saline and continuously administered intravenously to four healthy adults at a rate of 0.4 μg/kg/min for one hour.
# The rate of reduction of total peripheral vascular resistance after 40 minutes from the start of administration was determined for each subject from mean blood pressure and cardiac output calculated from Ultrasonic cardiography (UCG).
# [4] = test system: collagen-induced aggregation; assay: Collagen-induced aggregation after intravenous administration to healthy adults; assay type: in vivo, healthy adults (human); conditions: i.v. 0.8 μg/kg/min for one hour, mean of four subjects
# Description: as §1
# [5] = test system: collagen-induced aggregation of rabbit blood thrombocyte; assay: Collagen-induced platelet aggregation inhibition, rabbit platelet rich plasma; assay type: cell-based
# Description: The platelet aggregation inhibitory action of NKH-477 was examined on collagen-induced aggregation and ADP-induced aggregation of rabbit blood thrombocyte. The male Japanese white rabbits (body weight: 2.4-2.8 kg, procured from Tokyo Experimental Animals Co., Ltd.) were divided into groups of 5. The rabbits were etherized and blood was collected from the carotid artery of each rabbit. A 3.8% sodium citrate solution (final concentration: 0.38%) was added to a portion of blood collected from each group of rabbits to obtain platelet rich plasma (PRP). The remaining portion of blood was centrifuged at 3,000 r.p.m. for 15 minutes to obtain platelet poor plasma (PPP). First, permeability of PRP and PPP was determined by using an aggregometer (RMA-31 mfd. by Rika Denki Kogyo K. K.) and set at 0% and 100%, respectively. Separately from the above operation, 250 μl of PRP was placed in a cuvette and after preliminary heating at 37° C. for 2 minutes, 20 μl of specimen was added and incubated under stirring for 2 minutes. Then 10 μl of ADP (Sigma, final conc.: 3×10^-6 M) or collagen (Hormon-Chemie, final conc.: 10 μg/ml) was added and the transmission rate was measured. The maximum transmission rate observed in this operation was termed as the maximum aggregation rate. Recording in this operation was conducted on an ink-written recorder (B-381L mfd. by Rika Denki Kogyo K. K.). NKH-477 was dissolved in a physiological saline to make concentrations of 10^-8 to 10^-5 M. Forskolin dissolved in ethanol was used as control.
# [6] = test system: canine basilar artery; assay: Spasmolytic effect on KCl-induced contraction, canine basilar artery ring; conditions: for Inhibition rate, Basilar artery: 35 mM KCl, papaverine 10^-4 M = 100%, mean ± SE, n = 3
# Description: The canine coronary and basilar arteries were extirpated under anesthesia with pentobarbital to prepare the 3 mm wide ring preparation. Each preparation was suspended in a 10-ml organ bath filled with a Krebs-Henseleit solution by applying a static tension of 1.5 g (for the coronary artery) and 1.0 g (for the basilar artery). The nutrient solution was maintained at 37° C. and aerated with a 95% 02 /5% CO2 gas. The isometric mascular tension was measured with an FD pickup (TB-611T mfd. by Nihon Kohden K. K.) and recorded on a recorder (TI-104 mfd. by Tokai IRIKA K. K.).
# After about 2 hours of equilibrium time, contraction was induced with 30 mM of KCl (for coronary artery) and 35 mM of KCl (for basilar artery), and after contraction was stabilized, NKH-477 was administered cumulatively. The spasmolytic effect was expressed as percentages of the inhibition, with the maximal inhibition obtained with papaverine hydrochloride (10^-4 M) being supposed to have shown 100% inhibition.
# [7] = test system: NB-1 cells (a human neuroblastoma strain); assay: Differentiation inducing effect for NB-1 cells; assay type: cell-based; conditions: 4-hour incubation
# Description: The differentiation inducing effect for the NB-1 cells (a human neuroblastoma strain: cell strain derived from neuroblastoma generated in infantile adrenal gland) was examined. The NB-1 cells were applied to a 96-well plate at a rate of 2×10^3 cells/well and precultured for 3 days. After attachment and growth were stabilized, the medium (RPMI 1640+10% fetal calf serum+SM.PC) was exchanged and a 10 μl solution of each test compound was added. Then, the cells were kept under constant observation to determine the occurrence or non-occurrence of differentiation. 2 mM (1.037 mg/ml) of dibutyryl cAMP dissolved in RPMI 1640 was used as positive control. NKH-477 and 14,15-dihydro-6-(3-dimethylaminopropionyl)forskolin hydrochloride were dissolved in a physiological saline. Forskolin was dissolved in DMSO and diluted with a physiological saline. The criterion for judgment of morphological change in differentiation is as follows. The figures in the parentheses are the ratio of the differentiated cells to the whole cells. It was confirmed that DMSO was totally devoid of differentiation inducing and promoting action at the concentrations used in this test.
smiles,measurement,setting,value
"C=C[C@@]1(C)CC(=O)[C@]2(O)[C@@]3(C)[C@@H](O)CCC(C)(C)[C@@H]3[C@H](OC(=O)CCN(C)C)[C@H](OC(C)=O)[C@@]2(C)O1 [NKH-477, 6-(3-dimethylaminopropionyl)forskolin hydrochloride]",ADP-induced aggregation upon end of administration,[1]; before administration 68.5%,57.5%
same,"Inhibition rate, ADP-induced aggregation",[1],21.7%
same,Lesion reduction rate in whole-stratum skin cut-off model,"[2]; 1 day elapsed, control 26.4",31.7%
same,Lesion reduction rate in whole-stratum skin cut-off model,"[2]; 2 days elapsed, control 36.9",50.8%
same,Lesion reduction rate in whole-stratum skin cut-off model,"[2]; 3 days elapsed, control 45.5",56.4%
same,Lesion reduction rate in whole-stratum skin cut-off model,"[2]; 5 days elapsed, control 66.8",79.1%
same,curing of skin ulcer,[2]; as compared with the control,curing of skin ulcer is promoted
same,average reduction rate of total peripheral vascular resistance,[3],19.7%
same,Collagen-induced aggregation upon end of administration,[4]; before administration 70.3%,45.8%
same,"Inhibition rate, Collagen-induced aggregation",[4],38.7%
same,IC50,"[5]; Oryctolagus cuniculus, Platelet, rabbit PRP, collagen 10 μg/ml, mean, n = 5, read-out: Platelet aggregation inhibitory action (IC50), Collagen-induced aggregation",302 nM
same,platelet aggregation inhibitory action relative to forskolin,"[5]; from Table 1-1 (collagen- and ADP-induced), vs forskolin",over 10 times
same,IC50,"[6]; Canis lupus familiaris, KCl-induced contraction, n=3",102 nM
same,inhibitory action against KCl-induced contraction in the basilar artery,"[6]; Table 3, in words",concentration-dependent inhibitory action
same,"Inhibition rate, Basilar artery",[6]; line 1 of 5,3.8 ± 2.0%
same,"Inhibition rate, Basilar artery",[6]; line 2 of 5,22.1 ± 3.3%
same,"Inhibition rate, Basilar artery",[6]; line 3 of 5,52.0 ± 5.3%
same,"Inhibition rate, Basilar artery",[6]; line 4 of 5,78.3 ± 1.2%
same,"Inhibition rate, Basilar artery",[6]; line 5 of 5,89.2 ± 0.6%
same,Effect (differentiation inducing),[7]; Dose 1.56 μM,± (slight (<20%))
same,Effect (differentiation inducing),[7]; Dose 6.25 μM,++ (heavy (>80%))
same,Effect (differentiation inducing),[7]; Dose 25.00 μM,++ (heavy (>80%))
same,Effect (differentiation inducing),[7]; Dose 100.00 μM,++ (heavy (>80%))
